From patent US7087248B2, “Pharmaceutical component based on human parathyroid hormone and a pharmaceutical composition for intranasal administration comprising the component” (Daiichi Asubio Pharma Co., Ltd., priority 2000, dated 2006)

System: nasal cavity
Assay: Sensory test (1): odor and irritation evoked by nasal spraying
Protocol: As the control, physiological saline was used.
Then, aqueous solutions of various organic acids were prepared, in order to identify the factors responsible for the odor and irritation the preparation evokes when it is applied in the nasal cavity. The organic acid employed included acetic acid, citric acid and tartaric acid; oxalic acid; malic acid; phthalic acid; ascorbic acid; adipic acid; and glycolic acid.
Prepared were 0.1 v/v %, 0.2 v/v %, 0.3 v/v % and 0.6 v/v % aqueous solutions of acetic acid, and 0.6 w/v % aqueous solutions of citric acid, tartaric acid, oxalic acid, malic acid, phthalic acid, ascorbic acid, adipic acid, and glycolic acid. The solution was sprayed into the nasal cavity; and the odor and irritation were assessed in the same manner as above (testers consisting of four healthy normal adult males).
In the same manner as above, the test solution was applied in the nasal cavity, and the odor and irritation evoked thereby were assessed (testers consisting of 12 healthy normal adult males).

[1] = 0.6 w/v % aqueous solution sprayed into the nasal cavity, four healthy normal adult males

Row | Compound | Irritability (in vivo) | Irritability [1]
1 | O=C(O)c1ccccc1C(=O)O [Phthalic acid] | +++ | 
2 | O=C(O)CO [Glycolic acid] |  | the same with that from physiological saline and +
3 | O=C(O)C(O)C(O)C(=O)O (stereo not drawn) [Tartaric acid] | ++++ | 
4 | O=C(O)CC(O)C(=O)O (stereo not drawn) [Malic acid] |  | ++++
5 | O=C(O)C(=O)O [Oxalic acid] |  | ++++
6 | O=C1O[C@H]([C@@H](O)CO)C(O)=C1O [Ascorbic acid] |  | the same with that from physiological saline and +
